Measured values published in ChEMBL document CHEMBL1201862, “PubChem BioAssay data set” (2004).
The source made the active and inactive calls.

Key:
[1] = cells; type: functional
[2] = tested on: Streptococcus sp. 'group A'; experiment: Streptococcus pyogenes SK(-)GAS viability under kanamycin – luminescence, BacTiterGlo, confirmation, counter-screen for streptokinase expression inhibitor project, dose response (AID 1900); type: functional, organism-based
[3] = target: T1, Streptokinase A (Streptococcus pyogenes serotype M1, UniProt P10520); experiment: viability-normalized secreted streptokinase activity reduction – plasminogen activation absorbance, OD405, dose response (AID 1914); type: functional, Streptococcus pyogenes M1 GAS;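 further: secreted streptokinase activity via plasminogen activation per viability signal from cell pellet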
T1 sequence (P10520 whole entry): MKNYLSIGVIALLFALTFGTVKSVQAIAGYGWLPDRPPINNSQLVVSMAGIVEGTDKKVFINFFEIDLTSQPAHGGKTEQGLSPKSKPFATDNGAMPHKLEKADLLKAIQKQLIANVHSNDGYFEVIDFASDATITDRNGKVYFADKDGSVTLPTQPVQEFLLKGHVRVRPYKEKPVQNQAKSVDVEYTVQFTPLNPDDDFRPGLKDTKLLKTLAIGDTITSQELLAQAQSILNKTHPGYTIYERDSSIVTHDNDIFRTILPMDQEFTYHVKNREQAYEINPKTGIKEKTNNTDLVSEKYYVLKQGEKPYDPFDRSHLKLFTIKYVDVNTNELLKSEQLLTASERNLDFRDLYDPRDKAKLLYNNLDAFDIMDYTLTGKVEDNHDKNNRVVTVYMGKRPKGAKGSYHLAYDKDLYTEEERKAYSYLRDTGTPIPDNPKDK

[4] = tested on: Streptococcus; experiment: GAS UMAA2166 growth inhibition – luminescence, BacTiterGlo, counter-screen for streptokinase expression inhibitor project, dose response (AID 1915); type: functional, organism-based;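 further: potency for reduction of bacterial viability or growth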
[5] = viability of uninfected HEp-2 cells – cell-based, HTS, cytotoxicity control for RSV inhibitor project, dose response (AID 2410); type: functional; conditions: human respiratory syncytial virus
[6] = target: T2, RNA-binding protein pos-1 (Caenorhabditis elegans, UniProt G5EF15); experiment: disruptors of C. elegans POS-1 RNA interaction – biochemical, fluorescence polarization, dose response (AID 1964);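 further: purified POS-1 fused to maltose binding protein made in E. coli; potency of compounds blocking POS-1 binding to fluorescent RNA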
T2 sequence (G5EF15 whole entry): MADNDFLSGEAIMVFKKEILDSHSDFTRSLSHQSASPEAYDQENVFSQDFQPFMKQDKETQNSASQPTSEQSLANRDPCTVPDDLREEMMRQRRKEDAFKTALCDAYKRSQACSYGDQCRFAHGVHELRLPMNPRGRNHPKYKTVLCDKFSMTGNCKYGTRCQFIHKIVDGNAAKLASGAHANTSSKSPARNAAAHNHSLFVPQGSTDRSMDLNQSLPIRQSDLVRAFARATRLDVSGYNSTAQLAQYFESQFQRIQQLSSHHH

[7] = target: T3, Zinc finger protein mex-5 (Caenorhabditis elegans, UniProt Q9XUB2); experiment: potency of MEX-5 RNA-binding blockers – biochemical, C. elegans, fluorescence polarization, dose response (AID 1960)
T3 sequence (Q9XUB2 whole entry): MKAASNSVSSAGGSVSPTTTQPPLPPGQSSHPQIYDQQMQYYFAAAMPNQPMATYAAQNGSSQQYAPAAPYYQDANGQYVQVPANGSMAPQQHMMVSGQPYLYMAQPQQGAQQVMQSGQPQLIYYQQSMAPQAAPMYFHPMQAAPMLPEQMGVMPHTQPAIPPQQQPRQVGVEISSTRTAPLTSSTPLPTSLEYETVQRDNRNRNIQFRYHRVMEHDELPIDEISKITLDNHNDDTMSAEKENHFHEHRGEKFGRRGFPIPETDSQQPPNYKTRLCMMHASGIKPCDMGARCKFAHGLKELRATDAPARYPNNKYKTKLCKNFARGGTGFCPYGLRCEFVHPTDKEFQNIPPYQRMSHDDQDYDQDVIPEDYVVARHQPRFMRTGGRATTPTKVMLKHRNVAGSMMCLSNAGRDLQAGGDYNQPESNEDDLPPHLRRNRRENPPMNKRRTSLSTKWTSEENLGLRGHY

[8] = NIH-3T3 fibroblast cytotoxicity, dose response, cytotoxicity control, cell-based, fluorescence, Alamar Blue, secondary assay (AID 2327); type: functional;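 further: NIH-3T3 mouse fibroblasts cultured with fluconazole at 8 µg/mL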
[9] = luciferase reporter signal suppression in cells – H4 neuroglioma cells, luminescence, dose response (AID 1990); type: functional, cell-based
[10] = Luminescence Cell-Based Dose Response HTS to Identify Inhibitors of 5'UTR Stem-Loop Driven Prion Protein mRNA Translation in H4 Neuroglioblastoma Cells. [Related pubchem assays: 1827 (Project Summary), 1813 (Primary HTS)]; type: functional
[11] = alpha-synuclein stem-loop luciferase translation blockers – H4 neuroglioma cells, luminescence, confirmation (AID 1988); type: functional, cell-based
[12] = fluconazole-exposed Candida albicans growth modulators – fluorescence, retest, confirmation (AID 2467); type: functional, cell-based
[13] = target: Cytochrome P450 2C19 (Homo sapiens, UniProt P33261); experiment: Cytochrome panel assay with activity outcomes. Panel member name: p450-cyp2c19 Compounds with AC50 equal or less than 10 uM are considered active; type: functional; conditions: read-out: AC50
Cytochrome P450 2C19, sequence (P33261 whole entry): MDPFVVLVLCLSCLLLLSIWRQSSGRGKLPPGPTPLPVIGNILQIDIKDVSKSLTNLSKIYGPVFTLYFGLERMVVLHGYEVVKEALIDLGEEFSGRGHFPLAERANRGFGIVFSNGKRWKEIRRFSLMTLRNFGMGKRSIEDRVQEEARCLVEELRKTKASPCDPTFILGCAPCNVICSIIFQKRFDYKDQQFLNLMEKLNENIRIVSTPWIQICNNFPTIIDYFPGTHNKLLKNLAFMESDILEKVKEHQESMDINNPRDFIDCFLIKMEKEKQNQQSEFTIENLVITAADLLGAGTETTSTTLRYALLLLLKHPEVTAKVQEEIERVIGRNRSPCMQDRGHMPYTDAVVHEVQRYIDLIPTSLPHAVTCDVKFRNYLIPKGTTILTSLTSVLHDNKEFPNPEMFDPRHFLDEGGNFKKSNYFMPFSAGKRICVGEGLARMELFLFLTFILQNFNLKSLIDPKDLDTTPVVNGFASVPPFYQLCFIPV

[14] = target: Cytochrome P450 2D6 (Homo sapiens, UniProt P10635);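 further: CYP2D6 member of a cytochrome P450 panel assay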
Cytochrome P450 2D6, sequence (P10635 whole entry): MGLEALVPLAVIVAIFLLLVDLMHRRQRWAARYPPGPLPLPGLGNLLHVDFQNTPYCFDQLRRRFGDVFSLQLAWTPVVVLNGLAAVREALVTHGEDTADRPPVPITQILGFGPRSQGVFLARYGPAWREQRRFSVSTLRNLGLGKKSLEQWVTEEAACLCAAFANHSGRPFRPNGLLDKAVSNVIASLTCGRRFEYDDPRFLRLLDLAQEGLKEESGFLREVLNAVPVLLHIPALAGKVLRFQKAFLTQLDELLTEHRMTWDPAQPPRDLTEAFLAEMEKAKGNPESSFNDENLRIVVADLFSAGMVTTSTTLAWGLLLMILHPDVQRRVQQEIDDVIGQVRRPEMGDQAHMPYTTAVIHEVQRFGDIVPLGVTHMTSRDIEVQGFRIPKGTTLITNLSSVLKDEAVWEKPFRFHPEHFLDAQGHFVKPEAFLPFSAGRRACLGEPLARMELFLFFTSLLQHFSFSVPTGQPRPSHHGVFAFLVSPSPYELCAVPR

[15] = target: Cytochrome P450 2C9 (Homo sapiens, UniProt P11712)
Cytochrome P450 2C9, sequence (P11712 whole entry): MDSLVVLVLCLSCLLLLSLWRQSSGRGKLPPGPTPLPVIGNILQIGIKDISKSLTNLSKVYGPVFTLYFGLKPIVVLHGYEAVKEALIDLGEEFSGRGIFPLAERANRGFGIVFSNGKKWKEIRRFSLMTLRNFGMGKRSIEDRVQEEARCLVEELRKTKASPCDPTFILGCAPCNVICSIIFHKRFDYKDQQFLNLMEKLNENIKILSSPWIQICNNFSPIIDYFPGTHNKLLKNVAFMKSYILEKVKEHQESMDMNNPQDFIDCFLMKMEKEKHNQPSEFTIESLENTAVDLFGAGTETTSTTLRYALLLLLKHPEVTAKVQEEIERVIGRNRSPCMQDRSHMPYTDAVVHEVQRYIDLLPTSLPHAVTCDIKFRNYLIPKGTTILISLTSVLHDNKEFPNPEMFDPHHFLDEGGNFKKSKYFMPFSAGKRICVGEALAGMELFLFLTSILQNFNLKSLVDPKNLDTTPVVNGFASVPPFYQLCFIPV

CN(C(=O)COC(=O)c1ccc([N+](=O)[O-])cc1Cl)C1CCCCC1
IC50 [1]: 6.26 µM (active)

COc1ccc(/C=C/C(=O)NC(=S)NNC(=O)c2ccco2)cc1OC
EC50 [2]: 3.65 µM (active) | EC50 [3]: > 150 µM (not active) | EC50 [4]: 25.4 µM (active)

C/C(=N/NS(=O)(=O)c1ccc(Cl)cc1)c1cccc(NC(=O)c2ccc(Cl)cc2Cl)c1
EC50 [2]: 3.99 µM (active) | EC50 [3]: 23.4 µM (active) | EC50 [4]: 47.6 µM (active)

C/C(CCc1oc2ccc(Cl)cc2c1-c1ccc(C)o1)=N\O
CC50 [5]: 37.9 µM (active) | EC50 [6]: > 300 µM (not active) | EC50 [7]: > 300 µM (not active)

O=C(NCc1ccc2c(c1)OCO2)C(=O)NCC1OCCN1S(=O)(=O)c1ccc(Br)cc1 (stereo not given)
EC50 [2]: > 150 µM (not active) | EC50 [3]: > 150 µM (inconclusive) | EC50 [4]: > 150 µM (not active)

O=C(CN1C(=O)COc2ccc(S(=O)(=O)N3CCCCC3)cc21)NCc1ccc(F)cc1
EC50 [2]: > 150 µM (not active) | EC50 [3]: > 150 µM (not active) | EC50 [4]: > 150 µM (not active)

COc1cc(C(=O)NC(=S)N(CCc2ccccc2)CCc2ccccc2)cc(OC)c1OC
EC50 [8]: 28.6 µM (active) | EC50 [9]: > 120 µM (not active) | EC50 [2]: 0.525 µM (active) | EC50 [10]: 12.2 µM (active) | EC50 [11]: 10.6 µM (active) | EC50 [3]: > 150 µM (not active) | EC50 [12]: 4.2 µM (active) | EC50 [4]: 17.9 µM (active)

CC1C(=O)C(C)C(c2ccc(Cl)cc2)NC1c1ccc(Cl)cc1 (stereo not given)
EC50 [9]: 13.8 µM (active) | EC50 [10]: 15.7 µM (active) | EC50 [11]: 17.1 µM (active)

COC(=O)[C@H]1[C@H](CCc2ccccc2)NC(=O)N(Cc2ccccc2)[C@@H]1C
EC50 [3]: > 150 µM (not active) | EC50 [4]: > 150 µM (not active)

COc1ccc2c(c1)c(CC(=O)Nc1cccc(S(N)(=O)=O)c1)c(C)n2C(=O)c1ccc(Cl)cc1
EC50 [2]: 5.48 µM (active) | EC50 [3]: > 150 µM (not active) | EC50 [4]: > 50 µM (not active)

C1CCCCCC2(CCCCC1)OCC(CN1CCOCC1)O2 (stereo not given)
EC50 [9]: > 120 µM (not active) | EC50 [10]: > 120 µM (not active) | EC50 [11]: > 120 µM (not active)

Cc1cc(C)n(-c2nc(SCC(=O)O)c3c4c(sc3n2)CCCC4)n1
EC50 [2]: 8.77 µM (active) | EC50 [3]: > 150 µM (not active) | EC50 [4]: > 150 µM (not active)

COc1cccc(/C=N/n2c(N)nc3ccccc32)c1OC
EC50 [2]: > 150 µM (not active) | EC50 [3]: > 150 µM (not active) | EC50 [4]: > 150 µM (not active)

O=C(Nc1nnc(-c2ccc(Br)cc2)o1)c1cccc(N2C(=O)CCC2=O)c1
EC50 [2]: 4.43 µM (active) | EC50 [3]: > 150 µM (not active) | EC50 [4]: 14.1 µM (active)

Nc1[nH]nc(C2CC2)c1N=Nc1ccc(Cl)c(Cl)c1
CC50 [5]: 17.5 µM (active) | EC50 [2]: 4.36 µM (active) | EC50 [3]: 17 µM (active) | EC50 [4]: > 150 µM (not active)

O=C(NCC1CCCO1)c1ccc(CS(=O)(=O)Cc2ccc(F)cc2)o1 (stereo not given)
EC50 [6]: > 300 µM (not active) | EC50 [7]: > 300 µM (not active) | AC50 [13]: 39.8 µM (inconclusive)

CC(C)(O)c1[nH]c2cc(F)ccc2c1C(C)(C)O
EC50 [2]: 2.05 µM (active) | EC50 [3]: > 150 µM (not active) | EC50 [4]: 8.02 µM (active)

CN(Cc1ccc(OC(F)F)cc1)Cc1nc2c(Br)cc(Br)cc2c(=O)[nH]1
EC50 [3]: 29.4 µM (active)

CCC1CN(C(=O)N2CCC(C(=O)NCc3ccc(C)o3)CC2)c2ccccc2O1 (stereo not given)
EC50 [9]: > 120 µM (not active) | EC50 [10]: > 120 µM (not active) | EC50 [11]: > 120 µM (not active)

Cn1ncc2c(NNC(=O)Cc3ccccc3)ncnc21
EC50 [6]: > 300 µM (not active) | EC50 [7]: 10.5 µM (active)

Cc1cccc(OCC(=O)Nc2ccncc2)c1
EC50 [2]: > 150 µM (not active) | EC50 [3]: > 150 µM (not active) | EC50 [4]: > 150 µM (not active)

CC/C(=N\NC(=S)Nc1cccc(C)c1)c1ccccc1
EC50 [2]: 12.3 µM (active) | EC50 [3]: 21.3 µM (active) | EC50 [4]: > 50 µM (not active)

O=C(CN(Cc1ccc(F)cc1)C(=O)C1CSC(=O)C1)NC1CCCCC1 (stereo not given)
EC50 [9]: > 120 µM (not active) | EC50 [10]: > 120 µM (not active) | EC50 [11]: > 120 µM (not active)

CC1C2(C)OC(=N)C(C#N)(C(C)O2)C1(C#N)C#N (stereo not given)
EC50 [6]: > 300 µM (not active) | EC50 [7]: 16 µM (active)

COc1cccc(C(=O)N2C(C(=O)O)CSC2c2ccccc2Cl)c1 (stereo not given)
EC50 [2]: > 150 µM (not active) | EC50 [3]: > 150 µM (not active) | EC50 [4]: > 150 µM (not active)

Cc1ccccc1N1CCN(C(=O)CCN2C(=O)c3ccccc3C2=O)CC1
EC50 [2]: > 150 µM (not active) | EC50 [3]: > 150 µM (not active) | EC50 [4]: > 150 µM (not active)

COc1ccc(C(=O)/N=C2\SC3CS(=O)(=O)CC3N2Cc2ccccc2)cc1OC (stereo not given)
EC50 [9]: 26.2 µM (active) | EC50 [10]: 25.4 µM (active) | EC50 [11]: > 120 µM (not active)

COc1cccc(NC(=O)c2ccccc2Br)c1
EC50 [6]: > 300 µM (not active) | EC50 [7]: > 300 µM (not active)

COc1ccc(O)c2c(=O)c3c(OC)cc4c(c3oc12)C1C=COC1O4 (stereo not given)
EC50 [10]: 19.6 µM (active)

C=CCn1cc(C=C2C(=O)NC(=O)NC2=O)c2ccccc21
EC50 [6]: > 300 µM (not active) | EC50 [7]: 112 µM (inconclusive)

COc1ccc2c(c1)C1C=CCC1C(c1cc3c(cc1Br)OCO3)N2 (stereo not given)
EC50 [6]: > 300 µM (not active) | EC50 [7]: 47.9 µM (active)

CCOC(=O)c1c(-n2c(C)cc(/C=C3/C(=O)NC(=O)N(CC)C3=O)c2C)sc2c1CCCC2
EC50 [6]: 25.1 µM (active) | EC50 [7]: 29.8 µM (active)

Nc1nc(NCc2ccco2)nc(N2CCCCCC2)c1[N+](=O)[O-]
EC50 [2]: 2.82 µM (active) | EC50 [3]: > 150 µM (not active) | EC50 [4]: 7.75 µM (active)

Cc1cc(/C=C2\C(=O)NC(=O)N(c3ccc(F)cc3)C2=O)c(C)n1-c1ccc(C(=O)O)cc1
EC50 [6]: > 300 µM (not active) | EC50 [7]: > 300 µM (not active)

COc1ccc(N2C(N)=NC(N)=NC2(C)C)cc1
EC50 [9]: 10 µM (active) | EC50 [10]: > 120 µM (not active) | EC50 [11]: 7.02 µM (active)

CCCN1CC=C2C(C#N)=C(N)C(C#N)(C#N)C(c3cc(OC)ccc3OC)C2C1 (stereo not given)
EC50 [6]: 27.9 µM (active) | EC50 [7]: 25.5 µM (active) | AC50 [13]: 14.1 µM (inconclusive) | AC50 [14]: 15.8 µM (inconclusive) | AC50 [15]: 7.94 µM (inconclusive)

Cc1cc(C)c(S(=O)(=O)N(C)CC(=O)NC2CCCC2)c(C)c1
EC50 [9]: > 120 µM (not active) | EC50 [10]: > 120 µM (not active) | EC50 [11]: > 120 µM (not active)

COC(=O)C1(C(C[N+](=O)[O-])c2ccc(C)cc2)C(=O)NCC1c1ccco1 (stereo not given)
EC50 [2]: 8.44 µM (active) | EC50 [3]: > 150 µM (inconclusive) | EC50 [4]: 76.6 µM (active)

Cc1c(N/C=C2\C(=O)NC(=O)N(Cc3ccco3)C2=O)c(=O)n(-c2ccccc2)n1C
EC50 [6]: > 300 µM (not active) | EC50 [7]: > 300 µM (not active)
